Converted amounts (≈) assume the structure as drawn.

The test system of the test is Klebsiella pneumoniae PC1602. The test can be described thus: Minimal inhibitory concentration, agar dilution method. The format is cell-based. The text has this: When determined according to the agar dilution method, the penicillins (I) afford the minimal inhibitory concentrations against test microorganisms as shown in Table 2.
`CC1(C)S[C@@H]2[C@H](NC(=O)C(NC(=O)c3cnc4cccnc4c3O)c3cccc(O)c3)C(=O)N2[C@H]1C(=O)O` (some centres unmarked) [Example 26] displayed a Minimal inhibitory concentration of 25 µg/mL (≈ 46.5 µM).

Consider `CCOC(=O)Oc1ccc([C@@H](NC(=O)c2cnc3ccccc3c2OC(=O)OCC)C(=O)N[C@@H]2C(=O)N3[C@@H]2SC(C)(C)[C@@H]3C(=O)O)cc1` [Example 12], for which it took 25 µg/mL (≈ 36.7 µM) to inhibit growth (MIC).

`CCOC(=O)Oc1ccc([C@@H](NC(=O)c2cnc3cccnc3c2O)C(=O)N[C@@H]2C(=O)N3[C@@H]2SC(C)(C)[C@@H]3C(=O)O)cc1` [Example 9, D-α-(4-hydroxy-1,5-naphthyridine-3-carboxamido)-p-ethoxycarbonyloxybenzylpenicillin] returned an MIC of 12.5 µg/mL (≈ 20.5 µM). This MIC lies about 2-fold lower than the previous one.

In the case of `CC1(C)S[C@@H]2[C@H](NC(=O)[C@H](NC(=O)c3cnc4cccnc4c3O)c3ccc(O)c(Cl)c3)C(=O)N2[C@H]1C(=O)O` [Example 32], it took 25 µg/mL (≈ 43.7 µM) to inhibit growth (MIC).

`CCOC(=O)Oc1ccc([C@@H](NC(=O)c2cnc3cc4c(cc3c2S)OCO4)C(=O)N[C@@H]2C(=O)N3[C@@H]2SC(C)(C)[C@@H]3C(=O)O)cc1` [Example 38] showed an MIC of 6.25 µg/mL (≈ 9.35 µM). This MIC is about 4-fold lower than that of the compound before.

The compound `CC1(C)S[C@@H]2[C@H](NC(=O)C(NC(=O)c3cnc4cccnc4c3O)c3cccc(O)c3)C(=O)N2[C@H]1C(=O)O` (some centres unmarked) [Example 16] yielded an MIC of 25 µg/mL (≈ 46.5 µM). Against the preceding compound, the MIC is about 4-fold higher.

In turn, `CC1(C)S[C@@H]2[C@H](NC(=O)C(NC(=O)c3ccccn3)c3ccccc3)C(=O)N2[C@H]1C(=O)O` (some centres unmarked) [R, reference compound] had a Minimal inhibitory concentration of 50 µg/mL (≈ 110 µM).

For the compound `CC1(C)S[C@@H]2[C@H](NC(=O)[C@H](NC(=O)c3cnc4cccnc4c3S)c3ccc(O)cc3)C(=O)N2[C@H]1C(=O)O` [Example 43], the MIC worked out at 6.25 µg/mL (≈ 11.3 µM).

`CCOC(=O)Oc1ccc([C@@H](NC(=O)c2cnc3scnc3c2O)C(=O)N[C@@H]2C(=O)N3[C@@H]2SC(C)(C)[C@@H]3C(=O)O)cc1` [Example 42] displayed an MIC of 12.5 µg/mL (≈ 20.3 µM).

As to `CC1(C)S[C@@H]2[C@H](NC(=O)[C@H](NC(=O)c3nnc4ccccc4c3O)c3ccc(O)cc3)C(=O)N2[C@H]1C(=O)O` [Example 8, D-α-(4-hydroxycinnoline-3-carboxamido)-p-hydroxybenzylpenicillin], the minimal inhibitory concentration (MIC) was 25 µg/mL (≈ 46.5 µM).

For `CC(C)COC(=O)Oc1ccc([C@@H](NC(=O)c2cnc3nc(N(C)C)ncc3c2O)C(=O)N[C@@H]2C(=O)N3[C@@H]2SC(C)(C)[C@@H]3C(=O)O)cc1` [Example 30], inhibition of growth (MIC) required 12.5 µg/mL (≈ 18.3 µM).

With `COc1ccc2ncc(C(=O)N[C@@H](C(=O)N[C@@H]3C(=O)N4[C@@H]3SC(C)(C)[C@@H]4C(=O)O)c3ccc(O)cc3)c(O)c2n1` [Example 19], the MIC turned out to be 12.5 µg/mL (≈ 22 µM).

Consider `CC1(C)S[C@@H]2[C@H](NC(=O)[C@H](NC(=O)c3cnc4ccccc4c3O)c3cccc(O)c3)C(=O)N2[C@H]1C(=O)O` [Example 13], for which it took 25 µg/mL (≈ 46.6 µM) to inhibit growth (MIC). Compared with the last compound, the MIC is about 2-fold higher.

In turn, `Cc1ccc2ncc(C(=O)N[C@@H](C(=O)N[C@@H]3C(=O)N4[C@@H]3SC(C)(C)[C@@H]4C(=O)O)c3ccc(O)cc3)c(O)c2n1` [Example 18] registered an MIC of 12.5 µg/mL (≈ 22.7 µM).

`Cc1nc(C)c2ncc(C(=O)N[C@@H](C(=O)N[C@@H]3C(=O)N4[C@@H]3SC(C)(C)[C@@H]4C(=O)O)c3ccc(O)cc3)c(O)c2n1` [Example 35] came in with an MIC of 12.5 µg/mL (≈ 22.1 µM).

For the compound `CC1(C)S[C@@H]2[C@H](NC(=O)[C@H](NC(=O)c3cnc4ccccc4c3O)c3ccc(O)c(Cl)c3)C(=O)N2[C@H]1C(=O)O` [Example 14], it took 25 µg/mL (≈ 43.8 µM) to inhibit growth (MIC).

The compound `CC1(C)S[C@@H]2[C@H](NC(=O)[C@H](NC(=O)c3cnc4cc(C(F)(F)F)ccc4c3O)c3ccc(O)cc3)C(=O)N2[C@H]1C(=O)O` [Example 11] showed an MIC of 0.78 µg/mL (≈ 1.29 µM).

Compound `CC1(C)S[C@@H]2[C@H](NC(=O)C(NC(=O)c3cnc4cccnc4c3O)c3ccc(O)cc3)C(=O)N2[C@H]1C(=O)O` (mixture of isomers) [Example 2, DL-α-(4-hydroxy-1,5-naphthyridine-3-carboxamido)-p-hydroxybenzylpenicillin] returned an MIC of 25 µg/mL.

Take `Cc1ccc2c(O)c(C(=O)N[C@@H](C(=O)N[C@@H]3C(=O)N4[C@@H]3SC(C)(C)[C@@H]4C(=O)O)c3ccc(O)cc3)cnc2n1` [Example 7, D-α-(4-hydroxy-7-methyl-1,8-naphthyridine-3-carboxamido)-p-hydroxybenzylpenicillin]: the MIC was 12.5 µg/mL (≈ 22.7 µM).

`CCOC(=O)Oc1ccc([C@@H](NC(=O)c2cnc3cc(Cl)ccc3c2O)C(=O)N[C@@H]2C(=O)N3[C@@H]2SC(C)(C)[C@@H]3C(=O)O)cc1` [Example 10] registered an MIC of 3.13 µg/mL (≈ 4.87 µM). This MIC lies about 4-fold lower than the previous one.

`CC1(C)S[C@@H]2[C@H](NC(=O)[C@H](NC(=O)c3cnc4ccncc4c3O)c3ccc(O)cc3)C(=O)N2[C@H]1C(=O)O` [Example 29] came in with a minimum inhibitory concentration (MIC) of 25 µg/mL (≈ 46.5 µM).

For the compound `CC1(C)S[C@@H]2[C@H](NC(=O)[C@H](NC(=O)c3cnc4cncnc4c3O)c3ccc(O)cc3)C(=O)N2[C@H]1C(=O)O` [Example 34], the MIC was determined as 12.5 µg/mL (≈ 23.2 µM).

In turn, `CC1(C)S[C@@H]2[C@H](NC(=O)[C@H](NC(=O)c3cc4ccccc4nc3O)c3ccc(O)cc3)C(=O)N2[C@H]1C(=O)O` [Example 27] had an MIC of 12.5 µg/mL (≈ 23.3 µM).

`CC1(C)S[C@@H]2[C@H](NC(=O)C(C(=O)O)c3ccccc3)C(=O)N2[C@H]1C(=O)O` (some centres unmarked) [Carbenicillin, reference compound]: the MIC was > 200 µg/mL.

In turn, `CCOC(=O)Oc1ccc([C@@H](NC(=O)c2cnc3cccnc3c2S)C(=O)N[C@@H]2C(=O)N3[C@@H]2SC(C)(C)[C@@H]3C(=O)O)cc1` [Example 39] came in with an MIC of 6.25 µg/mL (≈ 9.99 µM).

The compound `CCOC(=O)Oc1ccc([C@@H](NC(=O)c2cnc3nc(C)ccc3c2O)C(=O)N[C@@H]2C(=O)N3[C@@H]2SC(C)(C)[C@@H]3C(=O)O)cc1` [Example 15] had an MIC of 12.5 µg/mL (≈ 20 µM).

Take `CCOC(=O)Oc1ccc([C@@H](NC(=O)c2cnc3c(OC)nc(OC)nc3c2O)C(=O)N[C@@H]2C(=O)N3[C@@H]2SC(C)(C)[C@@H]3C(=O)O)cc1` [Example 36]: the MIC was found to be 25 µg/mL (≈ 37.3 µM).

In turn, `COc1nc(OC)c2c(O)c(C(=O)N[C@@H](C(=O)N[C@@H]3C(=O)N4[C@@H]3SC(C)(C)[C@@H]4C(=O)O)c3ccc(O)cc3)cnc2n1` [Example 28] gave an MIC of 12.5 µg/mL (≈ 20.9 µM).

`Cc1nc(C)c2c(O)c(C(=O)N[C@@H](C(=O)N[C@@H]3C(=O)N4[C@@H]3SC(C)(C)[C@@H]4C(=O)O)c3ccc(O)cc3)cnc2n1` [Example 31]: inhibition of growth (MIC) required 12.5 µg/mL (≈ 22.1 µM).

In turn, `CC1(C)S[C@@H]2[C@H](NC(=O)[C@H](NC(=O)c3cnc4cccnc4c3O)c3ccc(O)cc3)C(=O)N2[C@H]1C(=O)O` [Example 1, D-α-(4-hydroxy-1,5-naphthyridine-3-carboxyamido)-p-hydroxybenzylpenicillin] had an MIC of 12.5 µg/mL (≈ 23.3 µM).

Take `CC1(C)S[C@@H]2[C@H](NC(=O)[C@H](NC(=O)c3cnc4ccc(O)nc4c3O)c3ccc(O)cc3)C(=O)N2[C@H]1C(=O)O` [Example 22]: the minimal inhibitory concentration (MIC) was determined as 12.5 µg/mL (≈ 22.6 µM).

The compound `CCOC(=O)Oc1c(C(=O)N[C@@H](C(=O)N[C@@H]2C(=O)N3[C@@H]2SC(C)(C)[C@@H]3C(=O)O)c2ccc(OC(=O)OCc3ccccc3)cc2)cnc2cccnc12` [Example 5, D-α-(4-ethoxycarbonyloxy-1,5-naphthyridine-3-carboxamido)-p-benzyloxycarbonyloxybenzylpenicillin] registered an MIC of 12.5 µg/mL (≈ 16.8 µM).

For `COc1cnc2c(O)c(C(=O)N[C@@H](C(=O)N[C@@H]3C(=O)N4[C@@H]3SC(C)(C)[C@@H]4C(=O)O)c3ccc(O)cc3)cnc2n1` [Example 41], the lowest concentration to inhibit growth (MIC) was 25 µg/mL (≈ 44 µM).

In the case of `CC1(C)S[C@@H]2[C@H](NC(=O)[C@H](NC(=O)c3cnc4ccc(N)nc4c3O)c3ccc(O)cc3)C(=O)N2[C@H]1C(=O)O` [Example 24], inhibition of growth (MIC) required 12.5 µg/mL (≈ 22.6 µM).

As to `CCOC(=O)Oc1ccc([C@@H](NC(=O)c2cnc3ccc(NC(C)=O)nc3c2O)C(=O)N[C@@H]2C(=O)N3[C@@H]2SC(C)(C)[C@@H]3C(=O)O)cc1` [Example 23], the MIC stood at 25 µg/mL (≈ 37.5 µM). Against the preceding compound, the MIC is about 2-fold higher.

Consider `CC1(C)S[C@@H]2[C@H](NC(=O)C(NC(=O)c3cnc4ccccc4c3O)c3ccc(O)cc3)C(=O)N2[C@H]1C(=O)O` (mixture of isomers) [Example 6, DL-α-(4-hydroxyquinoline-3-carboxamido)-p-hydroxybenzylpenicillin], for which the MIC was 25 µg/mL.

With `CCOC(=O)Oc1ccc([C@@H](NC(=O)c2cnc3ccc(N(C)C)nc3c2O)C(=O)N[C@@H]2C(=O)N3[C@@H]2SC(C)(C)[C@@H]3C(=O)O)cc1Cl` [Example 25], the MIC turned out to be 12.5 µg/mL (≈ 18.2 µM).

`CC(C)(C)C(=O)Oc1ccc([C@@H](NC(=O)c2cnc3ccccc3c2O)C(=O)N[C@@H]2C(=O)N3[C@@H]2SC(C)(C)[C@@H]3C(=O)O)cc1` [Example 4, D-α-(4-hydroxyquinoline-3-carboxamido)-p-pivaloyloxybenzylpenicillin] yielded an MIC of 12.5 µg/mL (≈ 20.1 µM).

Take `CCOC(=O)Oc1ccc([C@@H](NC(=O)c2cnc3cn[nH]c3c2O)C(=O)N[C@@H]2C(=O)N3[C@@H]2SC(C)(C)[C@@H]3C(=O)O)cc1` [Example 33]: it took 12.5 µg/mL (≈ 20.9 µM) to inhibit growth (MIC).

`CCOC(=O)Oc1ccc([C@@H](NC(=O)c2cnc3cc([N+](=O)[O-])ccc3c2O)C(=O)N[C@@H]2C(=O)N3[C@@H]2SC(C)(C)[C@@H]3C(=O)O)cc1` [Example 20] displayed an MIC of 3.13 µg/mL (≈ 4.79 µM). This MIC lies about 4-fold lower than the previous one.

Compound `CCOC(=O)Oc1ccc([C@@H](NC(=O)c2cnc3cccnc3c2OC(=O)OCC)C(=O)N[C@@H]2C(=O)N3[C@@H]2SC(C)(C)[C@@H]3C(=O)O)cc1` [Example 37] displayed an MIC of 12.5 µg/mL (≈ 18.3 µM).

In the case of `CC1(C)S[C@@H]2[C@H](NC(=O)C(NC(=O)c3cnc4cccnc4c3S)c3cc(Cl)c(O)c(Cl)c3)C(=O)N2[C@H]1C(=O)O` (some centres unmarked) [Example 40], the lowest concentration to inhibit growth (MIC) was 25 µg/mL (≈ 40.2 µM).

`CCOC(=O)Oc1ccc(C(NC(=O)c2cnc3ccc(N(C)C)nc3c2O)C(=O)N[C@@H]2C(=O)N3[C@@H]2SC(C)(C)[C@@H]3C(=O)O)cc1` (mixture of isomers) [Example 3, DL-α-(4-hydroxy-6-dimethylamino-1,5-naphthyridine-3-carboxamido)-p-ethoxycarbonyloxybenzylpenicillin] had an MIC of 3.13 µg/mL.

On to `CCOC(=O)Oc1ccc([C@@H](NC(=O)c2cnc3ccc(SC)nc3c2O)C(=O)N[C@@H]2C(=O)N3[C@@H]2SC(C)(C)[C@@H]3C(=O)O)cc1` [Example 17], for which the MIC came to 3.13 µg/mL (≈ 4.77 µM).

The values are drawn from patent publication US4003887A, “Novel penicillins and their preparation” (Sumitomo Chemical Company, Limited, priority 1972, dated 1977).
